Molecular target: T1, HDAC6 (Homo sapiens, UniProt Q9UBN7)
T1 construct: endogenous in cells; host or cells: MM1S (ATCC CRL-2974)
T1 sequence (Q9UBN7 1-1215): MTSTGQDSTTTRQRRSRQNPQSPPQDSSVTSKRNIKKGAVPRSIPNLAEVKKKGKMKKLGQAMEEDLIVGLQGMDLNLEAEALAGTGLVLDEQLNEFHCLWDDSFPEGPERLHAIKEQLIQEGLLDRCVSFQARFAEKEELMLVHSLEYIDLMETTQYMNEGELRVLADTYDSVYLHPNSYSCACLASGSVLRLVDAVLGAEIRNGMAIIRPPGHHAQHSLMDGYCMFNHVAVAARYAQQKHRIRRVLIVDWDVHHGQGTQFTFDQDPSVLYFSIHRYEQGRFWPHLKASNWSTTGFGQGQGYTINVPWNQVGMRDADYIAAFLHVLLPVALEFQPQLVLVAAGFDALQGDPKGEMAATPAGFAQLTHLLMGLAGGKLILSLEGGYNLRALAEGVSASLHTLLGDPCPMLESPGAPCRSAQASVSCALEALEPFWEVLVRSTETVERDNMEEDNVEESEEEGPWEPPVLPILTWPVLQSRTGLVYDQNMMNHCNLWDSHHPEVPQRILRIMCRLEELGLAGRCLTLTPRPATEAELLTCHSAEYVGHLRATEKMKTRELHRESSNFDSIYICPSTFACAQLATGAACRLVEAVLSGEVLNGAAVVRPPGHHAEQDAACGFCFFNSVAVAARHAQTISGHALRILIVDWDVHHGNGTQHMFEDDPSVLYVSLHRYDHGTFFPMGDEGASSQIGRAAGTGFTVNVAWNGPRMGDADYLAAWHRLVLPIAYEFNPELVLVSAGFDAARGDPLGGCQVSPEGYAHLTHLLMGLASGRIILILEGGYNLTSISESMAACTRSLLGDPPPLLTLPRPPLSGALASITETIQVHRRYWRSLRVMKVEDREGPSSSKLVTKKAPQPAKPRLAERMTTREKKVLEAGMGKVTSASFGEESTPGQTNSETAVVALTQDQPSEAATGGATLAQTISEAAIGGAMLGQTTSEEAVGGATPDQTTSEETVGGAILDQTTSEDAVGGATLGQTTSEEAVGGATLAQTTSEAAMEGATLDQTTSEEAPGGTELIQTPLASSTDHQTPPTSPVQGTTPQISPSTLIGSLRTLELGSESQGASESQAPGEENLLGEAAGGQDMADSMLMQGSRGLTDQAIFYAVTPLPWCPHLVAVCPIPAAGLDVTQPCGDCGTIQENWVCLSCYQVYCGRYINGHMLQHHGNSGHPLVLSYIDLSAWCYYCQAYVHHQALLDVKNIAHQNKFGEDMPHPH
Test: In-cell ELISA of HDAC6 protein level in MM1S cells
Assay type: cell-based
Conditions: 6 h; for DC50 / Dmax: 0.1 nM to 1 μM, nonlinear fit, ± SD; for Dmax / inhibition at 0.01 µM / inhibition at 0.1 µM: MM1.S; for Dmax: read-out: Dmax (Vehicle %); for inhibition at 0.01 µM: n=3, read-out: Degradation (%) 10 nM; for inhibition at 0.1 µM: n=3, read-out: Degradation (%) 100 nM
Description: FIG. 9 is a histogram depicting the results of screening of compounds for HDAC6 degradation activity by in-cell ELISA. MM1S cells were treated with compounds at 100 nM (blue bars) or 10 nM (red bars) for 6 h. Data was normalized to vehicle (DMSO)-treated group and the bar graph represents as mean of relative HDAC6 protein level (n=3) with ±SD as error bar. Statistical significance was analyzed by one-way ANOVA. Not significant (ns) P>0.05, *P≤0.05, **P≤0.01, ***P≤0.001, ****P≤0.0001.
FIG. 11 is a graph depicting dose response of selected degrader candidates. MM1S cells were treated for 6 h and analyzed by in-cell ELISA. Data was normalized to vehicle (DMSO)-treated group and dot plot represented as mean relative expression (n=3) with ±SD as error bar. Nonlinear fitting of inhibitor concentration vs. response (three parameters) was generated by GraphPad Prism with R2 from 0.97 to 0.99.
FIG. 15 is a histogram depicting relative HDAC6 expression as a function of linker length for compounds 3a through 3k as described in the Examples section, Part 2. Human MM1S cells were treated with 100 nM degraders for 6 hours and analyzed by in-cell ELISA assay.
FIG. 17 is a dose-response curve for degraders 3j (n=1), 3k (n=12) and 2, at concentrations from 1 nM to 300 nM for 4 h in MM1S. See the Examples, Part 2.
To screen the new series of degraders, an in-cell ELISA assay was developed and validated. The compounds were treated at 100 nM and 10 nM in MM1S cells for 6 h. Resulting cells were then fixed and analyzed by in-cell ELISA. […] Degraders including 1 at 100 nM degraded 73.5% to 85.0% of HDAC6 with minor difference. At 10 nM concentration of compounds, obvious structure-activity-relationship (SAR) was observed. […] For example, 12d, 12h, 12i, 12o and 12p all achieved about 70% degradation. Among the C4-linked series, 12d with medium length linker (5+1) achieved most degradation in sub-series 12a-e (m=1). […] Among C5-linked series, the potency of sub-series 12l-p (m=1) increased with the linker length. […] It appeared that both the distance and linking positions contributed to the degradation efficiency. The rigid triazole ring in the middle of the linker likely modulated the plasticity of degrader-bridged ternary complex.
The amount of cellular HDAC6 was measured in response to concentrations of compounds from 0.1 nM to 1 μM. […] The new degraders had single-digit nanomolar DC50, which was about 3 to 5 fold of improvement from 9.12 nM of degrader 1. […] As discussed above, most PROTACs were designed to avoid degrading other proteins except the targeted POIs. However, in these studies, it was hypothesized that HDAC6 degraders with IKZF degradation will have enhanced anti-proliferation effect MM1S cells.
MM1S cells were harvested and plated with 5×10^5 cells in 100 μL media per well 96-wells plate. After overnight seeding, 25 μL media containing 5× dosing concentration of the compounds or vehicle was added to each well. After 6-hour treatment at 37° C. in a humidified 5% CO2 atmosphere, cells were fixed by adding 125 μL 8% formaldehyde in TBS buffer (137 mM NaCl, 25 mM Tris, 2.7 mM potassium chloride, pH 7.6) and incubated at room temperature (RT) for 15 minutes. Removal of fixing solution was followed by once rinse and twice washes with TBS-T washing buffer (137 mM NaCl, 20 mM Tris, 0.1% Tween, pH 7.6). Cells were then permeabilized by adding 100 μL 0.1% Triton-X in TBS and incubated at RT for 15 minutes. Removal of permeabilizing solution was followed by once rinse and once wash with TBS-T. Cellular endogenous peroxidases were quenched by adding 100 μL 1% H2O2 in TBS and incubation at RT for 20 minutes. Removal of quenching solution was followed by once rinse and once wash with TBS-T. Non-specific binding sites were blocked by adding […] 5% BSA in TBS-T (with 0.02% NaN3) and incubation at 4° C. overnight. […]

[1] = 10 nM, 100% minus mean (± SD) relative HDAC6 expression
[2] = 100 nM, 100% minus mean (± SD) relative HDAC6 expression

| DC50 | Degradation (%) 10 nM (10 nM, 100% minus mean (± SD) relative HDAC6 expression, n=3) | Dmax | inhibition at 0.01 µM [1] | inhibition at 0.1 µM [2] | effect on expression of HDAC6 compared with vehicle (10 nM) | effect on expression of HDAC6 compared with vehicle (100 nM) | SMILES |
| --- | --- | --- | --- | --- | --- | --- | --- |
| 9.12 nM | 47.9 ± 0.9% | 84.1 ± 2.41% | 47.9% | 73.5 ± 0.3% |  |  | O=C(CCCCCCC(=O)N/N=C/c1ccc(OCCOCCOCCn2cc(CNc3cccc4c3C(=O)N(C3CCC(=O)NC3=O)C4=O)nn2)cc1)NO (stereo not drawn) [Compound 1] |
| 1.64 nM |  | 86.3 ± 1.7% | ~70% | 82.7 ± 1.7% |  |  | CCCCN(Cc1ccc(C(=O)NO)cc1)C(=O)Nc1ccc(OCCCCCn2cc(CNc3cccc4c3C(=O)N(C3CCC(=O)NC3=O)C4=O)nn2)cc1 (stereo not drawn) [Compound 12d, 4-((1-butyl-3-(4-((5-(4-(((2-(2,6-dioxopiperidin-3-yl)-1,3-dioxoisoindolin-4-yl)amino)methyl)-1H-1,2,3-triazol-1-yl)pentyl)oxy)phenyl)ureido)methyl)-N-hydroxybenzamide] |
|  |  |  | 60.3 ± 1.3% | 81.2 ± 0.6% |  |  | CCCCN(Cc1ccc(C(=O)NO)cc1)C(=O)Nc1ccc(OCCCn2cc(CNc3ccc4c(c3)C(=O)N(C3CCC(=O)NC3=O)C4=O)nn2)cc1 (stereo not drawn) [Compound 12m, 4-((1-butyl-3-(4-(3-(4-(((2-(2,6-dioxopiperidin-3-yl)-1,3-dioxoisoindolin-5-yl)amino)methyl)-1H-1,2,3-triazol-1-yl)propoxy)phenyl)ureido)methyl)-N-hydroxybenzamide] |
|  |  |  |  |  | didn't affect | very minimal effects | CCCCN(Cc1ccc(C(=O)NO)cc1)C(=O)Nc1ccccc1 [Next-A, 4-[[butyl[(phenylamino)carbonyl]amino]methyl]-N-hydroxy-benzamide, reference compound] |
|  |  |  |  |  | didn't affect | very minimal effects | Nc1cccc2c1C(=O)N(C1CCC(=O)NC1=O)C2=O (stereo not drawn) [Pomalidomide, reference compound] |

From patent US11059815B2, “Synthesis of small molecule histone deacetylase 6 degraders, compounds formed thereby, and pharmaceutical compositions containing them” (Wisconsin Alumni Research Foundation, priority 2018, dated 2021)
